One block for each compound: values may come before it.
Columns and labels:
[1] = test system: outer hair cells (OHCs) of p3 murine organ of Corti explants; experiment: Protection against gentamicin-induced OHC loss in murine organ of Corti explants; format: cell-based, CBA/J mice; settings: for concentration at which protection from GM-induced OHC loss begins / concentration that completely prevents GM-induced OHC loss / ED50 (median effective protective dose): 4.5 μM GM; for ED50 (median effective protective dose): 72 h co-incubation, p3 murine explants
Text: (§1) The culture procedures have been described in detail (Chen et al., [2009]). In brief, postnatal day 3 (p3) CBA/J pups were euthanized after antisepsis using 70% ethanol. Inner ears were extracted from surrounding tissue and immersed in cold Hank’s balanced salt solution. The lateral wall tissues (stria vascularis and spiral ligament) and the auditory nerve bundle were micro-dissected from the organ of Corti. The explants were placed onto a prepared culture dish containing a 15-μL polymerized drop of rat tail collagen in 1 mL of culture medium consisting of Basal Medium Eagle, 1% serum-free supplement (Invitrogen, Carlsbad, CA, USA), 1% bovine serum albumin, 5 mg/mL glucose, and 10 U/mL penicillin G. After 4 h of incubation (37°C, 5% CO2), an additional 1 mL of medium was added to submerge the explants.
(§2) The medium was then exchanged for new medium containing a final concentration of 4.5 μM GM with or without various concentrations of the HDAC inhibitors and incubated for 72 h. The stock solutions with 95 mM of SAHA/vorinostat (Cayman Chemical, Ann Arbor, MI, USA), 100 mM of belinostat (Selleckchem, Houson, TX, USA), and 100 mM of panobinostat (Cayman Chemical), were dissolved in 100% dimethyl sulfoxide (DMSO) and stored at −20°C. GM solution was made fresh from powder in culture medium at 0.2 mM and then diluted to the final concentration for each experiment.
(§3) Explants were fixed with 4% paraformaldehyde overnight at 4°C and permeabilized for 30 min with 3% Triton X-100 in phosphate-buffered saline (PBS) at room temperature (22–24°C). The specimens were then washed three times with PBS and incubated with rhodamine-phalloidin (Invitrogen) at a 1:100 dilution for 60 min at room temperature (22–24°C). After rinsing in PBS, the specimens were mounted on a slide with Gel-Mount™ (BioMeda Corp., Foster City, CA, USA). The phalloidin-stained stereociliary bundles and circumferential F-actin rings on the cuticular plate of OHCs allowed the determination of cells that were present or missing. A clear “V” shape of stereocilia indicates the presence of OHCs. If the “V” shape is not visualized, we accept this as a damaged hair cells. Cell populations were assessed on a Leitz Orthoplan upright microscope equipped for epifluorescence, using a 50× oil-immersion objective. […] Each successive 0.19-mm field was evaluated for the absence of OHCs beginning from the apex and moving down the organ of Corti to the base. The percentage of OHC loss was calculated.
After having established the safe concentration range for the HDAC inhibitors, we explored their efficacy as protective agents against GM-induced OHC loss. […] From the assessment of safe doses and the median effective (protective) doses (ED50) of the three HDAC inhibitors, we calculated the therapeutic index (TI = TD50/ED50) to be highest (safest) for belinostat and lowest for panobinostat (for detailed values see Table 2).

[2] = test system: outer hair cells (OHCs) of p3 murine organ of Corti explants; experiment: Toxicity of HDAC inhibitors in murine cochlear explants (OHC loss by hair cell counts); format: cell-based, CBA/J mice; settings: for loss of OHCs: 72 h; for concentration at which changes in orientation of stereociliary bundles of basal-turn OHCs begin / TD50 (median toxic dose, concentration leading to 50% OHC loss): 72 h incubation; for TD50 (median toxic dose, concentration leading to 50% OHC loss): p3 murine explants
Text: as §1, §2, §3
In order to evaluate the protective potential of the three HDAC inhibitors on aminoglycoside-induced ototoxicity, we first determined their safety on auditory sensory hair cells using p3 murine organ of Corti explants. Explants were incubated for 2 days for recovery from the stress of dissection, followed by 72 h of incubation with or without inhibitors. Toxic effects were assessed by OHC loss. […] OHCs in the basal turn show changes in the orientation of the stereociliary bundles beginning with concentrations of 4 μM for SAHA, 3 μM for belinostat, and 20 nM for panobinostat.

[3] = Guinea pig tolerability, serum platelet, BUN and creatinine levels; format: in vivo, guinea pigs; settings: for BUN / Cr: in mg/dL (unit assumed)
Experimental: Pigmented male guinea pigs initially weighing 200–250 g from Charles River were used in the in-vivo study. Experiments were begun 1 week after the guinea pigs arrived. To select safe doses of SAHA for protective studies, we conducted two separate sets of experiments to assess serum platelet concentrations. In the first set, pigmented guinea pigs received daily IP injections of SAHA at lower doses (LD; 2 mg/kg and 5 mg/kg) concurrent with SQ injections of 120 mg GM base/kg body weight daily for 2 weeks. In the second study, the higher doses (HD) of SAHA (15 mg/kg and 25 mg/kg) were used. The DMSO concentration was 1.1 g/kg, equal to the DMSO concentration used for the 25 mg/kg concentration of SAHA. […] We then tested the protective ability of SAHA at LD (2 mg/kg and 5 mg/kg) and at HD of SAHA (15 mg/kg and 25 mg/kg) against GM-induced hearing loss concurrent with daily SQ injections of GM (dissolved in saline) at 120 mg base/kg for 14 days. SAHA was dissolved in 100% DMSO for stock solutions of 25 mg/mL and diluted with saline immediately before IP injections. All compound solutions were filtered with syringe filters before injection. Body weights were measured before each injection. If a guinea pig lost ~5% of its body weight, an additional 3–4 mL of saline was administrated subcutaneously.
Blood was obtained by nail clipping after light anesthesia of the guinea pigs by metofane inhalation after the last drug injections. Blood cells were separated by centrifugation at 1000× g for 15 min, and sera were stored at −20°C. Blood urea nitrogen (BUN), creatinine and platelet concentrations were determined using a Kodak Ektachem700XR Clinical Chemistry Analyzer (Clinical Products Division, Eastman Kodak, Rochester, NY, USA) and analyzed by Dr. Donald Giacherio, Chemical Pathology Laboratory, University of Michigan.
While the CBA/J mouse is a well-established model for chronic KM-induced ototoxicity, we wished to ascertain whether the lack of protection by SAHA might be species-dependent. We therefore tested if SAHA treatment had protective effects against GM-induced hearing loss in guinea pigs. To find safe doses to be used in guinea pigs in vivo, we first assessed serum platelet concentrations. Guinea pigs tolerated injections of SAHA at all concentrations of 5–25 mg/kg body weight concurrent with SQ injections of 120 mg GM base/kg body weight daily for 2 weeks with normal appearing fur and steadily increasing body weight. Blood samples were collected after the last injection.

[4] = test system: CBA/J mice; experiment: Kanamycin-induced hearing loss in CBA/J mice in vivo (ABR threshold shifts), chronic model; settings: for auditory threshold shift (ABR), average: KM 700 mg base/kg SQ twice daily for 15 days
Experimental: Male CBA/J mice at the age of 5 weeks received subcutaneous (SQ) injections of KM at 700 mg base/kg (dissolved in saline) twice per day (AM and PM). SAHA for administration was dissolved in 100% DMSO for stock solutions of 50 mg/mL and diluted with saline immediately before intraperitoneal (IP) injection, for a final dose of 50 mg/kg, given twice per day for 15 days. The concentration of DMSO vehicle control was 1 mL/kg body weight. All solutions were filtered with a syringe filter before injection. Body weight was measured before each injection.
ABRs were measured 3 days before and 3 weeks after drug treatments. Animals were anesthetized with IP injections of ketamine (100 mg/kg) and xylazine (10 mg/kg) for mice or ketamine (58.8 mg/kg), xylazine (2.4 mg/kg), and acepromazine (1.2 mg/kg) for guinea pigs. Body temperature was maintained near 37°C with a heating pad. ABRs were measured at 12 and 32 kHz for guinea pigs or 8, 16, and 32 kHz for mice in a sound-isolated and electrically shielded booth (Acoustic Systems, Austin, TX, USA). Sub-dermal electrodes were inserted at the vertex of the skull, under the left ear and under the right ear (ground). Tucker Davis Technology System III hardware and SigGen/Biosig software were used to present the stimuli monaurally (15 ms duration tone bursts with 1 ms rise-fall time) through a Beyer earphone attached to a customized plastic speculum inserted into the ear canal. Up to 1024 responses were averaged for each stimulus level. Thresholds (the lowest stimulus level with a reproducible response) were determined by reducing the intensity in 10-dB steps and then in 5-dB steps approaching the threshold until no organized response was detected. Thresholds were evaluated based on ABR wave I. Scores were given by an expert blinded to experimental conditions between the highest stimulus level without a response and the lowest stimulus level where an organized response was observed. All ABR measurements were conducted by the same experimenter. […]

[5] = cited from earlier work
[6] = test system: pigmented guinea pigs; experiment: Gentamicin-induced ototoxicity in guinea pigs in vivo (ABR threshold shifts, OHC counts), chronic model; settings: for effect on GM-induced auditory threshold shifts: SAHA IP LD 2–5 mg/kg or HD 15–25 mg/kg with GM 120 mg base/kg daily for 2 weeks
Experimental: Pigmented male guinea pigs initially weighing 200–250 g from Charles River were used in the in-vivo study. Experiments were begun 1 week after the guinea pigs arrived. To select safe doses of SAHA for protective studies, we conducted two separate sets of experiments to assess serum platelet concentrations. […] In the second study, the higher doses (HD) of SAHA (15 mg/kg and 25 mg/kg) were used. The DMSO concentration was 1.1 g/kg, equal to the DMSO concentration used for the 25 mg/kg concentration of SAHA. […] SAHA was dissolved in 100% DMSO for stock solutions of 25 mg/mL and diluted with saline immediately before IP injections. All compound solutions were filtered with syringe filters before injection. Body weights were measured before each injection. If a guinea pig lost ~5% of its body weight, an additional 3–4 mL of saline was administrated subcutaneously.
The procedures for surface preparations of guinea pig cochlear epithelia were followed as previously described (Sha and Schacht, [1999b]). After the last auditory brain stem response (ABR) measurement, guinea pigs from the second group of experiments were deeply anesthetized in a CO2 chamber and decapitated. Cochleae were immediately removed and perfused with 4% paraformaldehyde in PBS at pH 7.4 and fixed overnight at 4°C. Micro-dissected surface preparations of the organ of Corti were permeabilized for 30 min with 0.5% Triton X-100 in PBS at room temperature (22–24°C) and stained with rhodamine phalloidin (Invitrogen) at a 1:100 dilution for 60 min at room temperature (22–24°C). After rinsing in PBS, the specimens were mounted on a slide with Gel-Mount™ (BioMeda Corp.). OHC counts were conducted with microscopy as described above for mice.
ABRs were measured 3 days before and 3 weeks after drug treatments. Animals were anesthetized with IP injections of ketamine (100 mg/kg) and xylazine (10 mg/kg) for mice or ketamine (58.8 mg/kg), xylazine (2.4 mg/kg), and acepromazine (1.2 mg/kg) for guinea pigs. Body temperature was maintained near 37°C with a heating pad. ABRs were measured at 12 and 32 kHz for guinea pigs or 8, 16, and 32 kHz for mice in a sound-isolated and electrically shielded booth (Acoustic Systems, Austin, TX, USA). Sub-dermal electrodes were inserted at the vertex of the skull, under the left ear and under the right ear (ground). […] Thresholds (the lowest stimulus level with a reproducible response) were determined by reducing the intensity in 10-dB steps and then in 5-dB steps approaching the threshold until no organized response was detected. Thresholds were evaluated based on ABR wave I. Scores were given by an expert blinded to experimental conditions between the highest stimulus level without a response and the lowest stimulus level where an organized response was observed. […]

[7] = test system: mice; design: method as in Layman et al., 2015; settings: 100 mg/kg/day for 2 weeks, ref Layman et al., 2015; cited from earlier work
[8] = test system: mice; settings: systemic SAHA, cited from earlier work
[9] = test system: hair cells in organotypic cultures of the cochlea; design: method as in Chen et al., 2009; settings: ref Chen et al., 2009; cited from earlier work
[10] = test system: guinea pigs; design: method as in Wang et al., 2015; settings: locally applied to the middle ear; ref Wang et al., 2015; cited from earlier work
[11] = GM + SAHA (HD: 15–25 mg/kg), n=5
[12] = SAHA alone (LD + HD; LD 2–5 mg/kg, HD 15–25 mg/kg), n=2

SMILES: Cc1[nH]c2ccccc2c1CCNCc1ccc(/C=C/C(=O)NO)cc1 [panobinostat]
concentration at which protection from GM-induced OHC loss begins ([1]; 72 h): 0.005 µM | concentration that completely prevents GM-induced OHC loss ([1]; 72 h): 0.015 µM | ED50 (median effective protective dose) [1]: 0.009 µM | loss of OHCs ([2]; 50 nM): 100% | concentration at which changes in orientation of stereociliary bundles of basal-turn OHCs begin [2]: 0.02 µM | TD50 (median toxic dose, concentration leading to 50% OHC loss) [2]: 0.035 µM

SMILES: O=C(CCCCCCC(=O)Nc1ccccc1)NO [SAHA, vorinostat]
BUN [3, 11]: 17 ± 3.2 | Cr [3, 11]: 0.4 ± 0.08 | BUN ([3]; GM + SAHA (LD: 2–5 mg/kg), n=6): 17 ± 1.7 | Cr ([3]; GM + SAHA (LD: 2–5 mg/kg), n=6): 0.4 ± 0.06 | platelet concentration compared to GM alone ([3]; SAHA 25 mg/kg IP daily with 120 mg GM base/kg SQ for 2 weeks): significantly lower | tolerability (fur appearance, body weight) ([3]; SAHA 5–25 mg/kg with 120 mg GM base/kg SQ daily for 2 weeks): tolerated | BUN [3, 12]: 17.5 ± 0.7 | Cr [3, 12]: 0.5 ± 0.007 | effect on KM-induced auditory threshold shifts ([4]; SAHA 50 mg/kg IP twice daily for 15 days with KM 700 mg base/kg twice daily): did not attenuate | blood-brain barrier penetration ([5]; mouse model of Huntington’s disease, ref Hockly et al., 2003): crosses the blood-brain barrier | blood-labyrinth barrier / inner ear penetration ([5]; mouse, IP injection, ref Layman et al., 2015): crosses the blood-labyrinth barrier | concentration at which protection from GM-induced OHC loss begins ([1]; 72 h): 0.5 µM | concentration that completely prevents GM-induced OHC loss ([1]; 72 h): 2 µM | ED50 (median effective protective dose) [1]: 0.6 µM | effect on GM-induced auditory threshold shifts ([6]; 12 kHz): did not attenuate | effect on GM-induced auditory threshold shifts ([6]; 32 kHz): did not attenuate | effect on GM-induced loss of OHCs ([6]; SAHA IP with GM 120 mg base/kg daily for 2 weeks): did not attenuate | ototoxicity [7]: no ototoxicity | loss of OHCs ([2]; 8 μM): 100% | concentration at which changes in orientation of stereociliary bundles of basal-turn OHCs begin [2]: 4 µM | TD50 (median toxic dose, concentration leading to 50% OHC loss) [2]: 5.5 µM | effect on trauma of exposure to excessive noise ([8]; ref Chen et al., 2016): attenuated | effect on acute effects of the ototoxic combination of KM and furosemide ([8]; ref Layman et al., 2015): attenuated

SMILES: O=C(/C=C/c1cccc(S(=O)(=O)Nc2ccccc2)c1)NO [belinostat]
concentration at which protection from GM-induced OHC loss begins ([1]; 72 h): 0.1 µM | concentration that completely prevents GM-induced OHC loss ([1]; 72 h): 0.4 µM | ED50 (median effective protective dose) [1]: 0.05 µM | loss of OHCs ([2]; 5 μM): 100% | concentration at which changes in orientation of stereociliary bundles of basal-turn OHCs begin [2]: 3 µM | TD50 (median toxic dose, concentration leading to 50% OHC loss) [2]: 3.5 µM

SMILES: CC(/C=C/C(=O)NO)=C\[C@@H](C)C(=O)c1ccc(N(C)C)cc1 [trichostatin A]
effect on hair cells under GM-induced damage [9]: rescued hair cells

SMILES: NC[C@H]1O[C@H](O[C@H]2[C@H](O)[C@@H](O[C@H]3O[C@H](CO)[C@@H](O)[C@H](N)[C@H]3O)[C@H](N)C[C@@H]2N)[C@H](O)[C@@H](O)[C@@H]1O [KM, kanamycin]
auditory threshold shift (ABR), average ([4]; 16 kHz): 55 dB | auditory threshold shift (ABR), average ([4]; 32 kHz): 55 dB

SMILES: CCCC(=O)O [butyrate, sodium butyrate]
effect on hair cells under GM-induced damage [9]: rescued hair cells | protection of guinea pigs in vivo [10]: protected

overall loss of OHCs ([1]; GM 4.5 μM with vehicle (DMSO) alone, 72 h, base-to-apex gradient): 40%
SMILES: CNC(C)C1CCC(N)C(OC2C(N)CC(N)C(OC3OCC(C)(O)C(NC)C3O)C2O)O1 (centres unmarked) [GM, gentamicin]
BUN ([3]; GM + DMSO, n=4): 16 ± 4.5 | Cr ([3]; GM + DMSO, n=4): 0.5 ± 0.22 | OHC loss in the basal turn ([6]; GM 120 mg base/kg SQ daily for 2 weeks): significant OHC loss
